Experimental data reported in ChEMBL document CHEMBL3886193, “Bicyclic sulfonamide compounds as sodium channel inhibitors” (2015).
“And” between values parts separate entries of the source, which are not always exact repeats. Equal values may be shown once.

Target: Sodium channel protein type 9 subunit alpha (Homo sapiens, UniProt Q15858)
Experiment: Compound effects were measured on a partially inactivated state of the sodium channel. Cells were clamped to a holding potential yielding 20 to 50% inactivation. To elicit sodium current, channels were activated by pulsing to -10 mV for 20 msec. This voltage protocol was repeated at a rate of 0.1 Hz throughout the experiment.
Format: cell-based, Sf9

Chain of Sodium channel protein type 9 subunit alpha (Q15858 whole entry): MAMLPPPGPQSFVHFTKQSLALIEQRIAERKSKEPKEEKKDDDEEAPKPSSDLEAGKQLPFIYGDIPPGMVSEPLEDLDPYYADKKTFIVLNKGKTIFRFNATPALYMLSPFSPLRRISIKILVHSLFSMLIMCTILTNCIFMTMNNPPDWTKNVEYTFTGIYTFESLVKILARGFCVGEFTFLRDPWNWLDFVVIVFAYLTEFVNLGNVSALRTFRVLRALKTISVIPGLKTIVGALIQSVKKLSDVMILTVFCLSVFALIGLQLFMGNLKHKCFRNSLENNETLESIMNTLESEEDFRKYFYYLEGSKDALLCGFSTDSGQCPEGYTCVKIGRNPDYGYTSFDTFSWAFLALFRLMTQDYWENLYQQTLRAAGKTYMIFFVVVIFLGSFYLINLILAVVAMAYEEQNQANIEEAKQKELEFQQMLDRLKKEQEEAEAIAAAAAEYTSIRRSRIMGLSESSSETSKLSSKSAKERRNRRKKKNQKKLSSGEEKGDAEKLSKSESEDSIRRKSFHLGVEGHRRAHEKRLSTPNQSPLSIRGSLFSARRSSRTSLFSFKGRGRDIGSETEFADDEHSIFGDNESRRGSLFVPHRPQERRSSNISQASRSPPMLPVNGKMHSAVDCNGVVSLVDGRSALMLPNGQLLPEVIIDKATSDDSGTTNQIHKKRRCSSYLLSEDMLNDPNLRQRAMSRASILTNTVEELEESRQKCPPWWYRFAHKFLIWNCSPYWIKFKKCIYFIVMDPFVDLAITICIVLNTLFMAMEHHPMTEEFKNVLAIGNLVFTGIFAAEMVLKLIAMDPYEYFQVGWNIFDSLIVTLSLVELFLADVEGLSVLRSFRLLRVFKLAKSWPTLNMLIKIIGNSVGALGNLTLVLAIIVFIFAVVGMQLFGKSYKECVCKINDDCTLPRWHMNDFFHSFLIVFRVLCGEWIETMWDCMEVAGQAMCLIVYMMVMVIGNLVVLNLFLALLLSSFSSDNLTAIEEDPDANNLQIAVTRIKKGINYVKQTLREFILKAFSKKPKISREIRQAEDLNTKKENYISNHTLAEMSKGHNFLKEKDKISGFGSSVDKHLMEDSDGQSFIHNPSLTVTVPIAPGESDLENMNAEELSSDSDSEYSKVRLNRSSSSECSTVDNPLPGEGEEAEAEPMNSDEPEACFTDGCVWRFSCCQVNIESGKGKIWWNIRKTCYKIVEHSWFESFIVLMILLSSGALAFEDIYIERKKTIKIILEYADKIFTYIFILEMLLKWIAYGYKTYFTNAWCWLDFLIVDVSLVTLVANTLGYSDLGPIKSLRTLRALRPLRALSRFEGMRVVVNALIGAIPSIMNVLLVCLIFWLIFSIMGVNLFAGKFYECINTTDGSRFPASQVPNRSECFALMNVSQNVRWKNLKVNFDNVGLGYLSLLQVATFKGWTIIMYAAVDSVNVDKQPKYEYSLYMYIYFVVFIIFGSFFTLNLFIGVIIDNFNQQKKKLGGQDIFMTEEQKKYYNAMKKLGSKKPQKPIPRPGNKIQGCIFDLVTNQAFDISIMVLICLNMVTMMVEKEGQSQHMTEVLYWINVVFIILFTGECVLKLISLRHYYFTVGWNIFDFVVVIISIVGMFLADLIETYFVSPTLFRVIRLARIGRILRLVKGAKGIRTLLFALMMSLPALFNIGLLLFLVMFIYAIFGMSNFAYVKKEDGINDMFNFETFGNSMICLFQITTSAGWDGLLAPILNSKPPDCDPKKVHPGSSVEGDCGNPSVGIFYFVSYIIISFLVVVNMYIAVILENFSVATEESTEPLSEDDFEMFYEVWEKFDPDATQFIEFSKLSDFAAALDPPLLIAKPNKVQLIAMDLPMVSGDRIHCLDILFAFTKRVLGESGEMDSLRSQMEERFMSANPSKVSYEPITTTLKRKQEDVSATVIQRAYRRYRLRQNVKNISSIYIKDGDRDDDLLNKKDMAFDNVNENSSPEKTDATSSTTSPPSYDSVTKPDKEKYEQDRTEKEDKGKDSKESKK

| IC50 | Structure (SMILES) |
| --- | --- |
| 3010 nM | COc1cc(Br)c(F)cc1-n1c(=O)ccc2cc(S(=O)(=O)Nc3ccnc(C)n3)ccc21 |
| 1980 nM | COc1ccc(CC(=O)OC(C)(C)C)cc1-n1c(=O)ccc2cc(S(=O)(=O)Nc3ccon3)ccc21 |
| 39 nM | COc1cc(CC2CCCCC2)c(F)cc1-n1c(=O)ccc2cc(S(=O)(=O)Nc3ncccn3)ccc21 |
| 21 nM | COc1cc(-c2ccc(-n3c(=O)ccc4cc(S(=O)(=O)Nc5ncccn5)ccc43)c(OC)c2)ccc1Cl |
| 143 nM | COc1cc(-c2ccc(-n3c(=O)ccc4cc(S(=O)(=O)Nc5cccnn5)ccc43)c(OC)c2)ccc1C |
| 312 nM | COc1cc(NS(=O)(=O)c2ccc3c(ccc(=O)n3-c3cc(F)c(Br)cc3OC)c2)ncn1 |
| 10 nM | COc1cc(Cl)cc(-c2ccc(-n3c(=O)ccc4cc(S(=O)(=O)Nc5ccon5)ccc43)c(OC)c2)c1 |
| 684 nM | Cc1cc(-c2cc(C)c(-n3c(=O)ccc4cc(S(=O)(=O)Nc5ccncn5)ccc43)cc2F)ccc1Cl |
| 14 nM | COc1cc(-c2cc(F)cc(Cl)c2)c(F)cc1-n1c(=O)ccc2cc(S(=O)(=O)Nc3ncco3)ccc21 |
| 198 nM | COc1cc(-c2ccc(-n3c(=O)ccc4cc(S(=O)(=O)Nc5cc(C)ncn5)ccc43)c(OC)c2)ccc1C |
| 72 nM | COc1cc(-c2cc(Cl)cnc2OC)c(F)cc1-n1c(=O)ccc2cc(S(=O)(=O)Nc3ncccn3)ccc21 |
| 83 nM | COc1cc(OC)cc(-c2cc(OC)c(-n3c(=O)ccc4cc(S(=O)(=O)Nc5cccnn5)ccc43)cc2F)c1 |
| 64 nM | COc1cc(OC)cc(-c2cc(OC)c(-n3c(=O)ccc4cc(S(=O)(=O)Nc5ncccn5)ccc43)cc2F)c1 |
| 902 nM | COc1ccc(-c2ccc(F)nc2)cc1-n1c(=O)ccc2cc(S(=O)(=O)Nc3ccon3)ccc21 |
| 88 nM | COc1cc(C2CCCC2)c(F)cc1-n1c(=O)ccc2cc(S(=O)(=O)Nc3ccon3)ccc21 |
| 95 nM | COc1cc(-c2ccc(Cl)cc2)ccc1-n1c(=O)ccc2cc(S(=O)(=O)Nc3ncccn3)ccc21 |
| 52 nM | COc1cc(Cl)cc(-c2ccc(-n3c(=O)cnc4cc(S(=O)(=O)Nc5ccon5)ccc43)c(OC)c2)c1 |
| 12 nM | COc1cc(-c2cc(Cl)ccc2C)ccc1-n1c(=O)ccc2cc(S(=O)(=O)Nc3ncccn3)ccc21 |
| 49 nM | COc1cc(Oc2ccc(F)cc2)ccc1-n1c(=O)ccc2cc(S(=O)(=O)Nc3ccon3)ccc21 |
| 166 nM | COc1cc(-c2ccc(-n3c(=O)ccc4cc(S(=O)(=O)Nc5ncc(F)cn5)ccc43)c(OC)c2)ccc1C |

| IC50 | Structure (SMILES) |
| --- | --- |
| 9 nM | COc1cc(-c2ccc(F)cc2)c(F)cc1-n1c(=O)ccc2cc(S(=O)(=O)Nc3ccon3)ccc21 |
| 28 nM | COc1cc(-c2cccc(OC(F)F)c2)c(F)cc1-n1c(=O)ccc2cc(S(=O)(=O)Nc3ccnc(C)n3)ccc21 |
| 16 nM | COc1cc(-c2ccc(F)c(F)c2)c(F)cc1-n1c(=O)ccc2cc(S(=O)(=O)Nc3cccnn3)ccc21 |
| 33 nM | COc1cc(OC)cc(-c2cc(OC)c(-n3c(=O)ccc4cc(S(=O)(=O)Nc5ncc(F)cn5)ccc43)cc2F)c1 |
| 9 nM | COc1cc(-c2ccc(Cl)c(C)c2)ccc1-n1c(=O)ccc2cc(S(=O)(=O)Nc3ncco3)ccc21 |
| 10 nM | COc1cc(-c2cccc(C(F)(F)F)c2)c(F)cc1-n1c(=O)ccc2cc(S(=O)(=O)Nc3ncccn3)ccc21 |
| 16 nM | COc1cc(Cl)ccc1-c1cc(OC)c(-n2c(=O)ccc3cc(S(=O)(=O)Nc4ccon4)ccc32)cc1F |
| 8 nM | COc1cc(C#CC2CCCC2)c(F)cc1-n1c(=O)ccc2cc(S(=O)(=O)Nc3cccnn3)ccc21 |
| 23 nM | COc1cc(-c2cccc(OC(F)F)c2)c(F)cc1-n1c(=O)ccc2cc(S(=O)(=O)Nc3ncccn3)ccc21 |
| 243 nM | COc1cc(-c2ccc(-n3c(=O)ccc4cc(S(=O)(=O)Nc5ncccn5)ccc43)c(OC)c2)ccc1C |
| 124 nM | CCc1nccc(NS(=O)(=O)c2ccc3c(ccc(=O)n3-c3cc(F)c(Br)cc3OC)c2)n1 |
| 13 nM | COc1cc(-c2ccc(Cl)c(C)c2)c(F)cc1-n1c(=O)ccc2cc(S(=O)(=O)Nc3ccon3)c(F)cc21 |
| 93 nM | COc1cc(-c2cc(Cl)ccn2)c(F)cc1-n1c(=O)ccc2cc(S(=O)(=O)Nc3ccon3)ccc21 |
| 11 nM | COc1cc(CC2CCCC2)c(F)cc1-n1c(=O)ccc2cc(S(=O)(=O)Nc3ccon3)ccc21 |
| 4530 nM | COCc1cc(NS(=O)(=O)c2ccc3c(ccc(=O)n3-c3cc(F)c(Br)cc3OC)c2)ncn1 |
| 5 nM | COc1cc(Cl)cc(-c2cc(OC)c(-n3c(=O)ccc4cc(S(=O)(=O)Nc5ncccn5)ccc43)cc2C)c1 |
| 23 nM and 6 nM | COc1cc(-c2ccc(Cl)c(C)c2)c(F)cc1-n1c(=O)cnc2cc(S(=O)(=O)Nc3ncccn3)ccc21 |
| 5 nM | COc1cc(-c2ccc(Cl)c(C)c2)c(F)cc1-n1c(=O)ccc2cc(S(=O)(=O)Nc3ccncn3)ccc21 |
| 193 nM | COc1cc(-c2ccc(F)cc2)c(F)cc1-n1c(=O)ccc2cc(S(=O)(=O)Nc3ncccn3)ccc21 |

Second part, the molecule before the results:

| Structure (SMILES) | IC50 |
| --- | --- |
| COc1nc(OCC2CCCCC2)c(Cl)cc1-n1c(=O)ccc2cc(S(=O)(=O)Nc3ccon3)ccc21 | 52 nM |
| COc1cc(C#CC(C)(C)OC)c(F)cc1-n1c(=O)ccc2cc(S(=O)(=O)Nc3ccon3)ccc21 | 373 nM |
| COc1cc(C2CCOCC2)c(F)cc1-n1c(=O)ccc2cc(S(=O)(=O)Nc3ccon3)ccc21 | 3070 nM |
| COc1cc(-c2cc(Cl)cnc2OC)c(F)cc1-n1c(=O)ccc2cc(S(=O)(=O)Nc3ccon3)ccc21 | 24 nM |
| COc1ccc(-c2cc(OC)c(-n3c(=O)ccc4cc(S(=O)(=O)Nc5ccon5)ccc43)cc2F)cc1Cl | 25 nM |
| COc1cc(-c2cc(F)cc(OC(F)F)c2)c(F)cc1-n1c(=O)ccc2cc(S(=O)(=O)Nc3ccon3)ccc21 | 11 nM |
| COc1cc(-c2cc(F)cc(C(F)(F)F)c2)ccc1-n1c(=O)ccc2cc(S(=O)(=O)Nc3ncco3)ccc21 | 37 nM |
| CCc1nccc(NS(=O)(=O)c2ccc3c(ccc(=O)n3-c3cc(F)c(-c4cc(F)cc(Cl)c4)cc3OC)c2)n1 | 7920 nM |
| COc1cc(Br)c(F)cc1-n1c(=O)ccc2cc(S(=O)(=O)Nc3cc(C)ncn3)ccc21 | 1040 nM |
| COc1cc(-c2ccc(Cl)cc2)ccc1-n1c(=O)ccc2cc(S(=O)(=O)Nc3ccon3)ccc21 | 22 nM |
| COc1cc(-c2ccc(C#N)c(C)c2)c(F)cc1-n1c(=O)ccc2cc(S(=O)(=O)Nc3ccon3)ccc21 | 91 nM |
| COc1cc(-c2cccc(C(F)F)c2)c(F)cc1-n1c(=O)ccc2cc(S(=O)(=O)Nc3ccon3)ccc21 | 35 nM |
| COc1cc(-c2ccc(Cl)c(C)c2)ccc1-n1c(=O)ccc2cc(S(=O)(=O)Nc3ncon3)ccc21 | 30 nM |
| COc1cc(-c2cc(F)cc(C(F)(F)F)c2)ccc1-n1c(=O)ccc2cc(S(=O)(=O)Nc3ccon3)ccc21 | 9 nM |
| COc1cc(-c2ccc(-n3c(=O)ccc4cc(S(=O)(=O)Nc5ccnc(C)n5)ccc43)c(OC)c2)ccc1C | 296 nM |
| COc1cc(-c2cc(C)cc(F)c2)c(F)cc1-n1c(=O)ccc2cc(S(=O)(=O)Nc3ccon3)ccc21 | 8 nM |
| COc1cc(-c2cccc(C(F)(F)F)c2)c(F)cc1-n1c(=O)ccc2cc(S(=O)(=O)Nc3cc(C)ncn3)ccc21 | 10 nM |
| COc1cc(C2CC2)c(Cl)cc1-n1c(=O)ccc2cc(S(=O)(=O)Nc3ccon3)ccc21 | 481 nM |
| COc1cc(CC2CCCCC2)c(F)cc1-n1c(=O)ccc2cc(S(=O)(=O)Nc3ncon3)ccc21 | 30 nM |
| COc1cc(NS(=O)(=O)c2ccc3c(ccc(=O)n3-c3cc(F)c(-c4cc(F)cc(Cl)c4)cc3OC)c2)ncn1 | 49 nM |
| COc1cc(-c2ccc(F)c(OC(F)F)c2)c(F)cc1-n1c(=O)ccc2cc(S(=O)(=O)Nc3ccon3)ccc21 | 22 nM |
| COc1cc(-c2cc(OC)c(-n3c(=O)ccc4cc(S(=O)(=O)Nc5cccnn5)ccc43)cc2F)ccc1Cl | 10 nM |
| COc1cc(OC)cc(-c2cc(OC)c(-n3c(=O)ccc4cc(S(=O)(=O)Nc5ccon5)ccc43)cc2F)c1 | 12 nM |
| COc1cc(-c2cc(F)cc(C(F)(F)F)c2)ccc1-n1c(=O)ccc2cc(S(=O)(=O)Nc3ncc(F)cn3)ccc21 | 35 nM |
| COc1cc(Br)c(F)cc1-n1c(=O)ccc2cc(S(=O)(=O)Nc3nccc(C)n3)ccc21 | 1560 nM |
| COc1cc(C#CC2(C)COC2)c(F)cc1-n1c(=O)ccc2cc(S(=O)(=O)Nc3ccon3)ccc21 | 1550 nM |
| COc1cc(-c2ccc(F)c(F)c2)ccc1-n1c(=O)ccc2cc(S(=O)(=O)Nc3ncc(F)cn3)ccc21 | 76 nM |
| COc1cc(C#CC2CCCC2)c(F)cc1-n1c(=O)ccc2cc(S(=O)(=O)Nc3ccon3)ccc21 | 22 nM |
| COc1cc(-c2ccccn2)c(F)cc1-n1c(=O)ccc2cc(S(=O)(=O)Nc3ccon3)ccc21 | 888 nM |
| COc1cc(C(F)(F)F)c(Cl)cc1-n1c(=O)ccc2cc(S(=O)(=O)Nc3ccncn3)ccc21 | 123 nM |
